These results are taken from patent US20090215171A1, “PELCAM-1-related molecules compositions kit of parts and associated methods of use” (The Johns Hopkins University, priority 2004, published 2009).

This assay has as its system HUVECs. Nature of the assay: Measurement of intracellular free [Ca2+]i in HUVEC suspension (Fura-2/AM, thrombin stimulation). The assay is classed as cell-based, human. The settings on record: rest HUVEC; 16 h treatment; Ab 0.4 and 1.6 μg/mL, peptides 15 and 30 μg/mL; thrombin 1 U/ml. How it is done: HUVECs were cultured in EGM™ supplied with 10% of fetal bovine serum (FBS, dialyzed) to early confluence. HUVECs (passage number 3-4) were pre-incubated with and without TNF-α (5 ng/mL, 4 hour), next the cells were subjected to various doses of the JHS-7 Ab, accompanied by the pAb-C (c-terminal anti-PECAM-1 antibody) and a rabbit IgG (both served as controls). In addition, HUVECs were also incubated with a various doses of the JHS-7 peptide and a scrambled peptide served as its control. The treatments were carried out in EGM™ supplied with 2% of FBS for 16 hours. […] All above-mentioned peptides and antibodies were tested endotoxin free with an endotoxin detection kit (Sigma E-TOXATE®). Cell viability was determined with trypan blue exclusion assay after the incubation and no cytotoxic effect was observed under the Applicants' experimental conditions. HUVEC monolayers, following the incubation, were subjected to the following assays simultaneously: 1) monocyte TEM assay; 2) [Ca^2+]i measurement. […] Experimental results were calculated as average levels and plotted as % controls.
[Ca^2+]i measurement was conducted as described previously with slight modification. […] Fluorescence was recorded using a spectrofluorometer (Perkin Elmer LS-50B), with excitation and emission wavelengths of 340 and 505 nm, respectively. […]

As for “scrambled peptide: control peptide of identical amino acid composition but different sequence TEDVLVPQNKSDNKATNNAFPNVSYVDEEDC (SEQ ID NO: 4) (Nonsense peptide with no known matches.)”, the “thrombin stimulatable [Ca2+]i” value is recorded as “no effect”.
